Measurements published in patent publication US9346754B2, “Method of treating advanced non-alcoholic steatohepatitis” (priority 2014, dated 2016).
Entries after “also recorded” stand apart in the source; their conditions may differ.

Legend:
Type in all cases: in vivo, C57BL/6 mice
[1] = system: STAM Model of Advanced Non-Alcoholic Steatohepatitis; assay: HE staining and NAFLD Activity Score (NAS) in STAM mice; parameters: key to NAS (NAFLD Activity Score): NAS scored per Kleiner criteria (Hepatology 2005)
Description: STAM™ is a useful model for advanced non-alcoholic steatohepatitis (advanced NASH), symptoms thereof, and related liver disorders, created by the combination of chemical and dietary interventions in C57BL/6 mice. In this example, after inducing NASH, it was allowed to reach an advanced stage, and the mice were treated at 8-12 weeks. […] Vehicle, MN-001, and Telmisartan were administered by oral route in a volume of 10 mL/kg. […] For HE staining, sections were cut from paraffin blocks of liver tissue prefixed in Bouin's solution and stained with Lillie-Mayer's Hematoxylin (Muto Pure Chemicals, Japan) and eosin solution (Wako Pure Chemical Industries). NAFLD Activity score (NAS) was calculated according to the criteria of Kleiner (Kleiner D E. et al., Hepatology, 2005; 41:1313). To visualize collagen deposition, Bouin's fixed liver sections were stained using picro-Sirius red solution (Waldeck, Germany). […] P values<0.05 were considered statistically significant. […] Results were expressed as mean±SD. Ten NASH mice were orally administered vehicle supplemented with MN-001 at a dose of 10 mg/kg once daily from 8 to 12 weeks of age. Ten NASH mice were orally administered vehicle supplemented with MN-001 at a dose of 30 mg/kg once daily from 8 to 12 weeks of age. Ten NASH mice were orally administered vehicle supplemented with MN-001 at a dose of 100 mg/kg once daily from 8 to 12 weeks of age. Ten NASH mice were orally administered pure water supplemented with Telmisartan at a dose of 10 mg/kg once daily from 8 to 12 weeks of age.

[2] = system: STAM Model of Advanced Non-Alcoholic Steatohepatitis; assay: F4/80 immunostaining, percentage of inflammation area in STAM mice
Description: (§1) For immunohistochemistry, sections were cut from frozen liver tissues embedded in Tissue-Tek O.C.T. compound and fixed in acetone. Endogenous peroxidase activity was blocked using 0.03% H2O2 for 5 minutes, followed by incubation with Block Ace (Dainippon Sumitomo Pharma, Japan) for 10 minutes. The sections were incubated with a 200-fold dilution of anti-α-SMA (Epitomics, USA) or anti-F4/80 antibody (BMA Biomedicals, Switzerland) 1 hour at room temperature. […] For quantitative analysis of fibrosis area, inflammation area, and semi-quantification of α-SMA, bright field images of Sirius red-stained, F4/80- and α-SMA-immunostained sections were captured around the central vein using a digital camera (DFC280: Leica Microsystems, Germany) at 200-fold magnification, and the positive areas in 5 fields/section were measured using ImageJ software (National Institute of Health, USA). […] P values<0.05 were considered statistically significant. […] Results were expressed as mean±SD.

[3] = system: STAM Model of Advanced Non-Alcoholic Steatohepatitis; assay: Alpha-SMA immunostaining, α-SMA-positive area in STAM mice; settings: 10 mg/kg oral once daily
Description: as §1

[4] = system: TIMP-1 mRNA; assay: Liver gene expression by quantitative RT-PCR: TIMP-1; settings: 10 mg/kg oral once daily, 8 to 12 weeks of age (MN-001-low; Telmisartan)
Description: (§2) Total RNA was extracted from liver samples using RNAiso (Takara Bio, Japan) according to the manufacturer's instructions. One μg of RNA was reverse-transcribed using a reaction mixture containing 4.4 mM MgCl2 (F. Hoffmann-La Roche, Switzerland), 40 U RNase inhibitor (Toyobo, Japan), 0.5 mM dNTP (Promega, USA), 6.28 μM random hexamer (Promega), 5× first strand buffer (Promega), 10 mM dithiothreitol (Invitrogen, USA) and 200 U MMLV-RT (Invitrogen) in a final volume of 20 μL. The reaction was carried out for 1 hour at 37° C., followed by 5 minutes at 99° C. Real-time PCR was performed using real-time PCR DICE and SYBR premix Taq (Takara Bio). To calculate the relative mRNA expression level, the expression of each gene was normalized to that of reference gene 36B4 (gene symbol: Rp1p0). Information of PCR-primer sets are described in Table 1. [table] […] P values<0.05 were considered statistically significant. […] Results were expressed as mean±SD.

[5] = system: Collagen Type 1 mRNA; assay: Liver gene expression by quantitative RT-PCR: Collagen Type 1; settings: Telmisartan 10 mg/kg oral once daily, 8 to 12 weeks of age
Description: as §2

[6] = system: Alpha-SMA mRNA; assay: Liver gene expression by quantitative RT-PCR: Alpha-SMA; settings: Telmisartan 10 mg/kg oral once daily, 8 to 12 weeks of age
Description: as §2

[7] = system: Five-Lipoxygenase mRNA; assay: Liver gene expression by quantitative RT-PCR: Five-Lipoxygenase; settings: 10 mg/kg oral once daily, 8 to 12 weeks of age (MN-001-low; Telmisartan)
Description: as §2

[8] = Liver weight and liver-to-body weight ratio in STAM mice; settings: Telmisartan 10 mg/kg oral once daily, 8 to 12 weeks of age
Source text: Mice in all groups will be sacrificed for the following assays at 12 weeks of age. Individual liver weight will be measured, and liver-to-body weight ratio will be calculated. Liver hydroxyproline will be quantified by a hydrolysis method. Histopathological analyses of liver sections (according to routine methods) HE staining (to estimate NAFLD Activity score), Sirius-red staining (to estimate the percentage of fibrosis area). F4/80 immunostaining (to estimate the percentage of inflammation area), Alpha-SMA immunostaining (to estimate the percentage of a-SMA positive area) are performed. Gene expression assays using total RNA from the liver Real-time RT-PCR analysis will be performed for TIMP-1, Collagen Type 1, α-SMA, 5-lipoxygenase, FLAP and LTC4 synthase are also performed. Statistical tests will be performed using Bonferroni Multiple Comparison Test. P values<0.05 will be considered statistically significant. […] P values<0.05 were considered statistically significant. […] Results were expressed as mean±SD.

[9] = Telmisartan 10 mg/kg oral once daily, 8 to 12 weeks of age
[10] = mean ± SD, 10 mg/kg oral once daily, 8 to 12 weeks of age (MN-001-low n=10; Telmisartan n=9)

CCCc1nc2c(C)cc(-c3nc4ccccc4n3C)cc2n1Cc1ccc(-c2ccccc2C(=O)O)cc1 [Telmisartan, reference compound]
NAS compared with the Vehicle group [1, 9]: significantly decreased
NAS (NAFLD Activity Score) [1, 10]: 2.8 ± 0.8
Number of mice with Steatosis score 0 ([1]; score 0 = <5%, 10 mg/kg oral once daily, 8 to 12 weeks of age (MN-001-low n=10; Telmisartan n=9)): 2
Number of mice with Lobular inflammation score 0 ([1]; score 0 = No foci, 10 mg/kg oral once daily, 8 to 12 weeks of age (MN-001-low n=10; Telmisartan n=9)): 2
Number of mice with Steatosis score 1 ([1]; score 1 = 5-33%, 10 mg/kg oral once daily, 8 to 12 weeks of age (MN-001-low n=10; Telmisartan n=9)): 7
Number of mice with Lobular inflammation score 1 ([1]; score 1 = <2 foci/200x, 10 mg/kg oral once daily, 8 to 12 weeks of age (MN-001-low n=10; Telmisartan n=9)): 5
Number of mice with Hepatocyte ballooning score 1 ([1]; score 1 = Few balloon cells, 10 mg/kg oral once daily, 8 to 12 weeks of age (MN-001-low n=10; Telmisartan n=9)): 9
Number of mice with Lobular inflammation score 2 ([1]; score 2 = 2-4 foci/200x, 10 mg/kg oral once daily, 8 to 12 weeks of age (MN-001-low n=10; Telmisartan n=9)): 2
Inflammation area compared with the Vehicle group [2, 9]: significantly decreased; also recorded: tended to decrease
F4/80-positive area (inflammation area) [2, 10]: 3.79 ± 1.60%
α-SMA-positive area compared with the Vehicle group ([3]; 8 to 12 weeks of age (MN-001-low; Telmisartan)): significantly decreased
Alpha-SMA-positive area ([3]; mean ± SD, 8 to 12 weeks of age (MN-001-low n=10; Telmisartan n=9)): 0.35 ± 0.14%
TIMP-1 mRNA expression levels compared with the Vehicle group [4]: significantly down-regulated
Collagen Type 1 mRNA expression levels compared with the Vehicle group [5]: significantly down-regulated
Alpha-SMA mRNA expression levels compared with the Vehicle group [6]: significantly down-regulated
Five-Lipoxygenase mRNA expression levels compared with the Vehicle group [7]: tended to decrease
Mean liver weight compared with the Vehicle group [8]: significantly decreased; also recorded: significant decrease
Mean liver-to-body weight ratio compared with the Vehicle group [8]: significant decrease
